PubChem BioAssay (NCI)
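These data come from cells grown in 96-well plates and exposed to compound for 48 hours at five concentrations. GI50: concentration for 50% inhibition of growth. The concentration for full growth arrest is given as TGI.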

Experiments:
Experiment in all cases: NCI-60 cell line screen, 48 h
[1] = system: 786-0 renal
[2] = system: SF-539 CNS
[3] = system: BT-549 breast
[4] = system: NCI-H522 lung
[5] = system: SW-620 colon
[6] = system: SK-MEL-5 melanoma
[7] = system: A498 renal
[8] = system: SF-268 CNS
[9] = system: SR leukemia
[10] = system: UACC-62 melanoma

In the case of `CC(C)c1ccccc1S(=O)c1ccccc1C(C)(C)O` (centres undefined), the TGI [1] is reported as greater than 100 µM, the TGI [2] is reported as greater than 100 µM and the TGI [3] is reported as greater than 100 µM. For the same compound, the TGI [4] was greater than 100 µM, the TGI [5] was greater than 100 µM and the TGI [6] was 81.5 µM. It also gave a TGI [7] of 40.8 µM, a TGI [8] greater than 100 µM and a TGI [9] greater than 100 µM. It also gave a TGI [10] greater than 100 µM.

`Cc1cc(NC(=O)c2ccc(C)c(Nc3nccc(-c4cccnc4)n3)c2)cc(-n2cnc(C)c2)c1` gave a GI50 [1] of 1.56 µM, a TGI [1] of 6.12 µM and a GI50 [2] of 2.09 µM. It also gave a TGI [2] of 9.27 µM, a GI50 [3] of 0.159 µM and a TGI [3] of 9.98 µM. For the same compound, the GI50 [4] was 4.89 µM, the TGI [4] was 15.3 µM and the GI50 [5] was 4.7 µM. For the same compound, the TGI [5] was 26.4 µM, the GI50 [6] was 5.04 µM and the TGI [6] was 12.7 µM. The GI50 [7] was 1.86 µM, the TGI [7] was 7.93 µM and the GI50 [8] was 5.46 µM. For the same compound, the TGI [8] was 13.4 µM, the GI50 [9] was 2.46 µM and the TGI [9] was 11.8 µM. The GI50 [10] was 2.92 µM and the TGI [10] was 11 µM.

`CSC1(CC(=O)N(C)C)C(=O)Nc2ccccc21` (centres undefined) gave a TGI [1] greater than 100 µM, a TGI [2] greater than 100 µM and a TGI [3] greater than 100 µM. The TGI [5] was greater than 100 µM, the TGI [6] was greater than 100 µM and the TGI [7] was greater than 100 µM. For the same compound, the TGI [8] was greater than 100 µM, the TGI [9] was greater than 100 µM and the TGI [10] was greater than 100 µM.

Compound `Cc1sc2nc(NCCc3c[nH]c4ccc(Cl)cc34)[nH]c(=O)c2c1C` has a GI50 [1] of 2.39 µM, a TGI [1] of 6.23 µM and a GI50 [2] of 3.37 µM. It also gave a TGI [2] of 13.4 µM, a GI50 [3] of 2.55 µM and a TGI [3] of 9.95 µM. It also gave a GI50 [4] of 1.79 µM, a TGI [4] of 3.91 µM and a GI50 [5] of 2.64 µM. For the same compound, the TGI [5] was 10.9 µM, the GI50 [6] was 1.98 µM and the TGI [6] was 3.88 µM. The GI50 [7] was 1.8 µM, the TGI [7] was 4.15 µM and the GI50 [8] was 2.28 µM. It also gave a TGI [8] of 8.13 µM, a GI50 [9] of 1.81 µM and a TGI [9] of 8.52 µM. It also gave a GI50 [10] of 2.96 µM and a TGI [10] of 12.7 µM.

`COc1ccc(-n2cc(-c3ccc(Cl)c(Cl)c3)nc2SCc2cccc(C#N)c2)cc1` was tested, and the GI50 [1] was 11.8 µM, the TGI [1] was 40.2 µM and the GI50 [2] was 16.1 µM. It also gave a TGI [2] of 41.9 µM, a GI50 [3] of 21.4 µM and a TGI [3] greater than 100 µM. It also gave a GI50 [4] of 13.6 µM, a TGI [4] greater than 100 µM and a GI50 [5] of 60 µM. The TGI [5] was greater than 100 µM, the GI50 [6] was 20.2 µM and the TGI [6] was greater than 100 µM. The GI50 [7] was 12.6 µM, the TGI [7] was 44.5 µM and the GI50 [8] was 37 µM. The TGI [8] was greater than 100 µM, the GI50 [9] was greater than 100 µM and the TGI [9] was greater than 100 µM. The GI50 [10] was 19.1 µM and the TGI [10] was greater than 100 µM.

For `O=C(N/N=C\c1cc(Br)ccc1O)c1ccncc1`, the GI50 [1] was 2.46 µM, the TGI [1] was greater than 100 µM and the GI50 [2] was 2.93 µM. The TGI [2] was 48.7 µM, the GI50 [3] was 2.57 µM and the TGI [3] was 40.8 µM. The GI50 [4] was 2.17 µM, the TGI [4] was 19.8 µM and the GI50 [5] was 2.66 µM. The TGI [5] was greater than 100 µM, the GI50 [6] was 2.6 µM and the TGI [6] was 21.8 µM. The GI50 [7] was 5.82 µM, the TGI [7] was 77.3 µM and the GI50 [8] was 1.4 µM. It also gave a TGI [8] greater than 100 µM, a GI50 [9] of 2.45 µM and a TGI [9] greater than 100 µM. It also gave a GI50 [10] of 1.45 µM and a TGI [10] of 7.4 µM.

With `Nc1nc(Br)nc2c1ncn2C1CC(O)C(CO)O1` (centres undefined) the GI50 [1] was 34.2 µM, the TGI [1] was greater than 100 µM and the GI50 [2] was 27.4 µM. The TGI [2] was greater than 100 µM, the GI50 [3] was 3.52 µM and the TGI [3] was greater than 100 µM. It also gave a GI50 [4] of 0.698 µM, a TGI [4] greater than 100 µM and a GI50 [5] of 16.5 µM. It also gave a TGI [5] greater than 100 µM, a GI50 [6] of 29.3 µM and a TGI [6] greater than 100 µM. The GI50 [7] was 21 µM, the TGI [7] was 99.4 µM and the GI50 [8] was 99.8 µM. For the same compound, the TGI [8] was greater than 100 µM, the GI50 [9] was 3.13 µM and the TGI [9] was greater than 22.4 µM. The GI50 [10] was 2.4 µM and the TGI [10] was greater than 100 µM.

Work on `Fc1ccc(Nc2cc(-n3nnc4ccccc43)nc3ccccc23)cc1` yielded a GI50 [1] of 13.1 µM, a TGI [1] greater than 49.9 µM and a GI50 [2] of 24.6 µM. The TGI [2] was greater than 55.6 µM, the GI50 [3] was greater than 47.9 µM and the TGI [3] was greater than 89 µM. The GI50 [4] was 66.3 µM, the TGI [4] was greater than 100 µM and the GI50 [5] was greater than 100 µM. For the same compound, the TGI [5] was greater than 100 µM, the GI50 [6] was 32.2 µM and the TGI [6] was greater than 100 µM. The GI50 [7] was 56.4 µM, the TGI [7] was greater than 100 µM and the GI50 [8] was greater than 40.1 µM. It also gave a TGI [8] greater than 66.3 µM, a GI50 [9] greater than 100 µM and a TGI [9] greater than 100 µM. It also gave a GI50 [10] of 36.4 µM and a TGI [10] greater than 69.2 µM.

`O=C(O)c1c(-c2nccc3ccccc23)[nH]c(-c2ccccc2)c1S(=O)(=O)O` gave a TGI [1] greater than 100 µM, a TGI [2] greater than 100 µM and a TGI [3] greater than 100 µM. It also gave a TGI [4] greater than 100 µM, a TGI [5] greater than 100 µM and a TGI [6] greater than 100 µM. It also gave a TGI [7] greater than 100 µM, a TGI [8] greater than 100 µM and a TGI [9] greater than 100 µM. It also gave a TGI [10] greater than 100 µM.

Compound `O=C(O)c1cc(O)c2c(c1)C(C1c3cc(C(=O)O)cc(O)c3C(=O)c3c(OC4OC(CO)C(O)C(O)C4O)cccc31)c1cccc(OC3OC(CO)C(O)C(O)C3O)c1C2=O` (centres undefined) has a GI50 [1] greater than 100 µM, a TGI [1] greater than 100 µM and a GI50 [2] greater than 100 µM. The TGI [2] was greater than 100 µM, the GI50 [3] was greater than 100 µM and the TGI [3] was greater than 100 µM. The GI50 [4] was greater than 100 µM, the TGI [4] was greater than 100 µM and the GI50 [5] was greater than 100 µM. It also gave a TGI [5] greater than 100 µM, a GI50 [6] greater than 100 µM and a TGI [6] greater than 100 µM. For the same compound, the GI50 [7] was greater than 100 µM, the TGI [7] was greater than 100 µM and the GI50 [8] was greater than 100 µM. The TGI [8] was greater than 100 µM, the GI50 [9] was greater than 100 µM and the TGI [9] was greater than 100 µM. For the same compound, the GI50 [10] was greater than 100 µM and the TGI [10] was greater than 100 µM.
